Reference: patent US10238670B2, “9-aminomethyl minocycline compounds and methods of use thereof in urinary tract infection (UTI) treatment” (Paratek Pharmaceuticals, Inc., priority 2016, dated 2019)

Key:
Experiment in all cases: In vitro MIC, 2010 surveillance isolates
A. baumanii = type: cell-based
MR CoNS = type: cell-based, Coagulase-Negative Staphylococcus
K. pneumoniae ESBL− = type: cell-based, Klebsiella pneumoniae
K. pneumoniae ESBL+ = type: cell-based, Klebsiella pneumoniae
MS CoNS = type: cell-based, Coagulase-Negative Staphylococcus
E. cloacae CeftazR = type: cell-based
E. cloacae CeftazS = type: cell-based
E. coli ESBL− = type: cell-based, Escherichia coli
MRSA = type: cell-based
K. oxytoca = type: cell-based
E. coli ESBL+ = type: cell-based, Escherichia coli
Enterobacter spp = type: cell-based
MSSA = type: cell-based
Acinetobacter spp = type: cell-based

Substance: Gentamicin
- % R (resistance) (A. baumanii; Asia/Pac, Eucast breakpoints): 80%
- MIC90 (A. baumanii; Asia/Pac, N=275): > 8 µg/mL
- % R (resistance) (A. baumanii; Europe, Eucast breakpoints): 61.4%
- MIC90 (A. baumanii; Europe, N=145): > 8 µg/mL
- % R (resistance) (A. baumanii; L. Amer, CLSI breakpoints): 52.4%
- MIC90 (A. baumanii; L. Amer, N=275): > 8 µg/mL
- % R (resistance) (A. baumanii; N America, CLSI breakpoints): 57.8%
- MIC90 (A. baumanii; N America, N=154): > 8 µg/mL
- % R (resistance) (MR CoNS; Asia/Pac, Eucast breakpoints): 72.7%
- MIC90 (MR CoNS; Asia/Pac, N=77): > 8 µg/mL
- % R (resistance) (MR CoNS; Europe, Eucast breakpoints): 56.2%
- MIC90 (MR CoNS; Europe, N=510): > 8 µg/mL
- % R (resistance) (MR CoNS; L. Amer, CLSI breakpoints): 33.2%
- MIC90 (MR CoNS; L. Amer, N=301): > 8 µg/mL
- % R (resistance) (MR CoNS; N America, CLSI breakpoints): 22.6%
- MIC90 (MR CoNS; N America, N=461): > 8 µg/mL
- % R (resistance) (K. pneumoniae ESBL−; Asia/Pac, Eucast breakpoints): 3.7%
- MIC90 (K. pneumoniae ESBL−; Asia/Pac, N=189): ≤ 1 µg/mL
- % R (resistance) (K. pneumoniae ESBL−; Europe, Eucast breakpoints): 2.2%
- MIC90 (K. pneumoniae ESBL−; Europe, N=361): ≤ 1 µg/mL
- % R (resistance) (K. pneumoniae ESBL−; L. Amer, CLSI breakpoints): 1.3%
- MIC90 (K. pneumoniae ESBL−; L. Amer, N=160): ≤ 1 µg/mL
- % R (resistance) (K. pneumoniae ESBL−; N America, CLSI breakpoints): 1.2%
- MIC90 (K. pneumoniae ESBL−; N America, N=671): ≤ 1 µg/mL
- % R (resistance) (K. pneumoniae ESBL+; Asia/Pac, Eucast breakpoints): 58.1%
- MIC90 (K. pneumoniae ESBL+; Asia/Pac, N=124): > 8 µg/mL
- % R (resistance) (K. pneumoniae ESBL+; Europe, Eucast breakpoints): 58.3%
- MIC90 (K. pneumoniae ESBL+; Europe, N=151): > 8 µg/mL
- % R (resistance) (K. pneumoniae ESBL+; L. Amer, CLSI breakpoints): 56.9%
- MIC90 (K. pneumoniae ESBL+; L. Amer, N=209): > 8 µg/mL
- % R (resistance) (K. pneumoniae ESBL+; N America, CLSI breakpoints): 46.3%
- MIC90 (K. pneumoniae ESBL+; N America, N=108): > 8 µg/mL
- % R (resistance) (MS CoNS; Asia/Pac, Eucast breakpoints): 33.3%
- MIC90 (MS CoNS; Asia/Pac, N=18): 4 µg/mL
- % R (resistance) (MS CoNS; Europe, Eucast breakpoints): 9.7%
- MIC90 (MS CoNS; Europe, N=185): ≤ 1 µg/mL
- % R (resistance) (MS CoNS; L. Amer, CLSI breakpoints): 7.5%
- MIC90 (MS CoNS; L. Amer, N=67): 8 µg/mL
- % R (resistance) (MS CoNS; N America, CLSI breakpoints): 2.1%
- MIC90 (MS CoNS; N America, N=191): ≤ 1 µg/mL
- % R (resistance) (E. cloacae CeftazR; Asia/Pac, Eucast breakpoints): 39.7%
- MIC90 (E. cloacae CeftazR; Asia/Pac, N=63): > 8 µg/mL
- % R (resistance) (E. cloacae CeftazR; Europe, Eucast breakpoints): 43.1%
- MIC90 (E. cloacae CeftazR; Europe, N=72): > 8 µg/mL
- % R (resistance) (E. cloacae CeftazR; L. Amer, CLSI breakpoints): 38.1%
- MIC90 (E. cloacae CeftazR; L. Amer, N=42): > 8 µg/mL
- % R (resistance) (E. cloacae CeftazR; N America, CLSI breakpoints): 20.8%
- MIC90 (E. cloacae CeftazR; N America, N=77): > 8 µg/mL
- % R (resistance) (E. cloacae CeftazS; Asia/Pac, Eucast breakpoints): 6%
- MIC90 (E. cloacae CeftazS; Asia/Pac, N=100): ≤ 1 µg/mL
- % R (resistance) (E. cloacae CeftazS; Europe, Eucast breakpoints): 1.1%
- MIC90 (E. cloacae CeftazS; Europe, N=183): ≤ 1 µg/mL
- % R (resistance) (E. cloacae CeftazS; L. Amer, CLSI breakpoints): 12.3%
- MIC90 (E. cloacae CeftazS; L. Amer, N=57): > 8 µg/mL
- % R (resistance) (E. cloacae CeftazS; N America, CLSI breakpoints): 0%
- MIC90 (E. cloacae CeftazS; N America, N=210): ≤ 1 µg/mL
- % R (resistance) (E. coli ESBL−; Asia/Pac, Eucast breakpoints): 16.3%
- MIC90 (E. coli ESBL−; Asia/Pac, N=282): > 8 µg/mL
- % R (resistance) (E. coli ESBL−; Europe, Eucast breakpoints): 7.4%
- MIC90 (E. coli ESBL−; Europe, N=1533): 2 µg/mL
- % R (resistance) (E. coli ESBL−; L. Amer, CLSI breakpoints): 9%
- MIC90 (E. coli ESBL−; L. Amer, N=389): 2 µg/mL
- % R (resistance) (E. coli ESBL−; N America, CLSI breakpoints): 7.7%
- MIC90 (E. coli ESBL−; N America, N=1172): 2 µg/mL
- % R (resistance) (MRSA; Asia/Pac, Eucast breakpoints): 58.6%
- MIC90 (MRSA; Asia/Pac, N=428): > 8 µg/mL
- % R (resistance) (MRSA; Europe, Eucast breakpoints): 23.1%
- MIC90 (MRSA; Europe, N=750): > 8 µg/mL
- % R (resistance) (MRSA; L. Amer, CLSI breakpoints): 35.4%
- MIC90 (MRSA; L. Amer, N=506): > 8 µg/mL
- % R (resistance) (MRSA; N America, CLSI breakpoints): 3.7%
- MIC90 (MRSA; N America, N=2508): ≤ 1 µg/mL
- % R (resistance) (K. oxytoca; Asia/Pac, Eucast breakpoints): 17.6%
- MIC90 (K. oxytoca; Asia/Pac, N=17): > 8 µg/mL
- % R (resistance) (K. oxytoca; Europe, Eucast breakpoints): 8.2%
- MIC90 (K. oxytoca; Europe, N=158): ≤ 1 µg/mL
- % R (resistance) (K. oxytoca; L. Amer, CLSI breakpoints): 12%
- MIC90 (K. oxytoca; L. Amer, N=25): > 8 µg/mL
- % R (resistance) (K. oxytoca; N America, CLSI breakpoints): 2.3%
- MIC90 (K. oxytoca; N America, N=177): ≤ 1 µg/mL
- % R (resistance) (E. coli ESBL+; Asia/Pac, Eucast breakpoints): 58.9%
- MIC90 (E. coli ESBL+; Asia/Pac, N=219): > 8 µg/mL
- % R (resistance) (E. coli ESBL+; Europe, Eucast breakpoints): 40.5%
- MIC90 (E. coli ESBL+; Europe, N=274): > 8 µg/mL
- % R (resistance) (E. coli ESBL+; L. Amer, CLSI breakpoints): 39.3%
- MIC90 (E. coli ESBL+; L. Amer, N=168): > 8 µg/mL
- % R (resistance) (E. coli ESBL+; N America, CLSI breakpoints): 26.1%
- MIC90 (E. coli ESBL+; N America, N=134): > 8 µg/mL
- % R (resistance) (Enterobacter spp; Asia/Pac, Eucast breakpoints): 7.7%
- MIC90 (Enterobacter spp; Asia/Pac, N=52): ≤ 1 µg/mL
- % R (resistance) (Enterobacter spp; Europe, Eucast breakpoints): 4.9%
- MIC90 (Enterobacter spp; Europe, N=82): ≤ 1 µg/mL
- % R (resistance) (Enterobacter spp; L. Amer, CLSI breakpoints): 9.5%
- MIC90 (Enterobacter spp; L. Amer, N=42): 2 µg/mL
- MIC90 (Enterobacter spp; N America, N=101): ≤1 (1)
- % R (resistance) (MSSA; Asia/Pac, Eucast breakpoints): 8.4%
- MIC90 (MSSA; Asia/Pac, N=641): ≤ 1 µg/mL
- % R (resistance) (MSSA; Europe, Eucast breakpoints): 2.7%
- MIC90 (MSSA; Europe, N=2109): ≤ 1 µg/mL
- % R (resistance) (MSSA; L. Amer, CLSI breakpoints): 1.9%
- MIC90 (MSSA; L. Amer, N=590): ≤ 1 µg/mL
- % R (resistance) (MSSA; N America, CLSI breakpoints): 0.7%
- MIC90 (MSSA; N America, N=2373): ≤ 1 µg/mL
- % R (resistance) (Acinetobacter spp; Asia/Pac, Eucast breakpoints): 33.3%
- % R (resistance) (Acinetobacter spp; Europe, Eucast breakpoints): 32.6%
- MIC90 (Acinetobacter spp; Europe, N=43): > 8 µg/mL
- % R (resistance) (Acinetobacter spp; L. Amer, CLSI breakpoints): 22.2%
- % R (resistance) (Acinetobacter spp; N America, CLSI breakpoints): 14.3%
- MIC90 (Acinetobacter spp; N America, N=42): > 8 µg/mL
